From ChEMBL document CHEMBL4261648, “Lobaric acid and pseudodepsidones inhibit NF-κB signaling pathway by activation of PPAR-γ” (Bioorg Med Chem, 2018)

How the values were obtained:
[1] = biological target: Toll-like receptor 4 (Homo sapiens) (UniProt O00206); assay: Inhibition of TLR4 in human U937-3xkappaB-LUC cells assessed as inhibition of Aggregatibacter actinomycetemcomitans LPS-induced NF-kappaB activation preincubated for 30 mins followed by LPS stimulation and measured after 6 hrs post LPS challenge by Bright-Glo luciferase reporter gene assay relative to control
U-937 [2] = assay: Antiinflammatory activity in human U937 cells assessed as inhibition of LPS-induced IL-8 production preincubated for 2 hrs followed by LPS stimulation and measured after 24 hrs post LPS challenge by ELISA; format: functional
U-937 [3] = assay: Antiinflammatory activity in human U937 cells assessed as inhibition of LPS-induced IL-1beta secretion preincubated for 2 hrs followed by LPS stimulation and measured after 24 hrs post LPS challenge by ELISA; format: functional
U-937 [4] = assay: Antiinflammatory activity in human U937 cells assessed as inhibition of LPS-induced IL-6 production preincubated for 2 hrs followed by LPS stimulation and measured after 24 hrs post LPS challenge by ELISA; format: functional
U-937 [5] = assay: Antiinflammatory activity in PMA-differentiated human U937 cells assessed as inhibition of LPS-induced TNFalpha secretion preincubated for 2 hrs followed by LPS stimulation and measured after 24 hrs post LPS challenge by ELISA relative to control; format: functional

Chain of Toll-like receptor 4 (Homo sapiens) (O00206 whole entry): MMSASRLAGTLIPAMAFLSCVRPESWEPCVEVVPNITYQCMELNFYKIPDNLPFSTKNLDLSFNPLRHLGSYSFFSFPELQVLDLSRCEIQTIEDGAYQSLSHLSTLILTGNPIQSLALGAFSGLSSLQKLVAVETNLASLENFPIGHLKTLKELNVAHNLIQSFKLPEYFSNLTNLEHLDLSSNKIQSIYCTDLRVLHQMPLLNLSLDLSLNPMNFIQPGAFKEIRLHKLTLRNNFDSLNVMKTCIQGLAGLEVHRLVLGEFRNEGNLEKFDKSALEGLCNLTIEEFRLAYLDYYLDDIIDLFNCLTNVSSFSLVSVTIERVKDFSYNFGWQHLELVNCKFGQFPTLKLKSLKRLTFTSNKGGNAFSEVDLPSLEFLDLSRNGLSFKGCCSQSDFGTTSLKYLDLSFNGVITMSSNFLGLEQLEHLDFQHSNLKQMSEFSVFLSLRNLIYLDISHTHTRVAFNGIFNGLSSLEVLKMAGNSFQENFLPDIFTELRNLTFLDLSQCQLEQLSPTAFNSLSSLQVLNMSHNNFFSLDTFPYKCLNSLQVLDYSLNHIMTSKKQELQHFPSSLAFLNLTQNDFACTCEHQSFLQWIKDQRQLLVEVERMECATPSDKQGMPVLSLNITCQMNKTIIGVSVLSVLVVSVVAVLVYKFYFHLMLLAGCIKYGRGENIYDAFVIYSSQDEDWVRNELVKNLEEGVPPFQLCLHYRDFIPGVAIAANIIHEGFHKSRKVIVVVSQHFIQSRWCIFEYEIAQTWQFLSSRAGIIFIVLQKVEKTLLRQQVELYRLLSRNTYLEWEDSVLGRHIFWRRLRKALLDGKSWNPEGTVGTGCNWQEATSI

SMILES: Cc1ccc(S(=O)(=O)/C=C/C#N)cc1
- inhibition [1]: 99.3%
- inhibition (INH) (U-937 [2]): 99.1%
- inhibition (INH) (U-937 [3]): 95.9%
- inhibition (INH) (U-937 [4]): 99.2%
- inhibition (INH) (U-937 [5]): 99.5%
